Assays:
Assay type in all cases: in vivo
[1] = test system: barnyardgrass (Echinochloa crus-galli); test: Test B flooded paddy test; conditions: Rate 1000 g/ha, scale of 0 to 100 where 0 is no effect and 100 is complete control, visually evaluated after 13 to 15 days
In short: (§1)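 Greenhouse-held for 13 to 15 days after treatment at the 2-leaf stage, paddy-grown plants were scored visually against controls on a 0-to-100 control scale; a dash marks no test result.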

[2] = test system: duck salad (Heteranthera limosa); test: Test B flooded paddy test; conditions: Rate 1000 g/ha, scale of 0 to 100 where 0 is no effect and 100 is complete control, visually evaluated after 13 to 15 days
In short: as §1

rice (Oryza saliva) [3] = test: Test B flooded paddy test; conditions: Rate 1000 g/ha, scale of 0 to 100 where 0 is no effect and 100 is complete control, visually evaluated after 13 to 15 days
In short: as §1

[4] = test system: smallflower flatsedge (Cyperus difformis); test: Test B flooded paddy test; conditions: Rate 1000 g/ha, scale of 0 to 100 where 0 is no effect and 100 is complete control, visually evaluated after 13 to 15 days
In short: as §1

[5] = test system: barnyardgrass (Echinochloa crus-galli); test: Test C flooded paddy test; conditions: for Barnyardgrass plant response rating: scale 0 to 100, 0 no effect, 100 complete control
In short: (§2)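 Ratings come from visual comparison with control plants after 12 to 14 days in the greenhouse. Each species was at the 2-leaf stage when the flooded paddy was treated. Scores run from 0, meaning no effect, to 100, meaning complete control.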

[6] = test system: duck salad (Heteranthera limosa); test: Test C flooded paddy test; conditions: for Ducksalad plant response rating: scale 0 to 100, 0 no effect, 100 complete control
In short: as §2

rice (Oryza saliva) [7] = test: Test C flooded paddy test; conditions: for Rice plant response rating: scale 0 to 100, 0 no effect, 100 complete control
In short: as §2

[8] = Flooded Paddy, Rate 500 g/ha, scale 0 to 100
[9] = Flooded Paddy, Rate 1000 g/ha, scale 0 to 100
[10] = flooded paddy test, Rate 62 g/ha, scale 0 to 100 (0 no effect, 100 complete control)
[11] = flooded paddy test, Rate 125 g/ha, scale 0 to 100 (0 no effect, 100 complete control)
[12] = flooded paddy test, Rate 16 g/ha, visually evaluated after 12 to 14 days, 0 = no effect, 100 = complete control
[13] = flooded paddy test, under head Rate 16 g/ha, (own rate not given), after 12 to 14 days

SMILES | Plant response rating, Barnyardgrass [1] | Plant response rating, Ducksalad [2] | Plant response rating, Rice (rice (Oryza saliva) [3]) | Plant response rating, Flatsedge [4] | Barnyardgrass plant response rating ([5]; Flooded Paddy, Rate 250 g/ha) | Plant response rating, Barnyardgrass [5, 10] | Plant response rating, Barnyardgrass [5, 11] | Ducksalad plant response rating ([6]; Flooded Paddy, Rate 250 g/ha) | Plant response rating, Ducksalad [6, 10] | Plant response rating, Ducksalad [6, 11] | Rice plant response rating (rice (Oryza saliva) [7]; Flooded Paddy, Rate 250 g/ha) | Plant response rating, Rice (rice (Oryza saliva) [7]; [10]) | Plant response rating, Rice (rice (Oryza saliva) [7]; [11]) | Barnyardgrass plant response rating ([5]; Flooded Paddy, Rate 500 g/ha) | Ducksalad plant response rating ([6]; Flooded Paddy, Rate 500 g/ha) | Rice plant response rating (rice (Oryza saliva) [7]; Flooded Paddy, Rate 500 g/ha) | further results
O=C1C(n2ccc(C3CC3)n2)CCN1c1cccc(C(F)(F)F)c1 (stereo not shown) [Compound 8] | 100 | 80 | 90 | 100 | 40 | 0 | 0 | 40 | 0 | 20 | 60 | 0 | 0 |  |  |  | Plant response rating, Barnyardgrass [5, 8]: 70; Plant response rating, Barnyardgrass [5, 9]: 100; Plant response rating, Ducksalad [6, 8]: 70; Plant response rating, Ducksalad [6, 9]: 100; Plant response rating, Rice (rice (Oryza saliva) [7]; [8]): 60; Plant response rating, Rice (rice (Oryza saliva) [7]; [9]): 80
CC1(C)CCc2cn(C3CCN(c4cccc(C(F)(F)F)c4)C3=O)nc21 (stereo not shown) [Compound 10] | 100 | 100 | 60 | 100 | 40 | 0 | 0 | 90 | 0 | 20 | 10 | 0 | 0 |  |  |  | Plant response rating, Barnyardgrass [5, 8]: 80; Plant response rating (scale 0 to 100), Barnyardgrass [5, 12]: 0; Plant response rating, Ducksalad [6, 8]: 90; Plant response rating (scale 0 to 100), Ducksalad [6, 12]: 0; Plant response rating, Rice (rice (Oryza saliva) [7]; [8]): 60; Plant response rating (scale 0 to 100), Rice (rice (Oryza saliva) [7]; [12]): 0
CC1CCc2cn(C3CCN(c4cccc(C(F)(F)F)c4)C3=O)nc21 (stereo not shown) [Compound 11] | 60 | 90 | 40 | 100 | 30 | 0 | 20 | 20 | 0 | 20 | 20 | 0 | 0 |  |  |  | Plant response rating, Barnyardgrass [5, 8]: 80; Plant response rating, Ducksalad [6, 8]: 30; Plant response rating, Rice (rice (Oryza saliva) [7]; [8]): 30
CCC(C)c1ccn(C2OCN(c3cccc(C(F)(F)F)c3)C2=O)n1 (stereo not shown) [Compound 24] | 100 | 100 | 90 | 100 | 100 | 100 | 100 | 100 | 60 | 100 | 30 | 0 | 20 | 100 | 100 | 60 | Plant response rating (scale 0 to 100), Barnyardgrass [5, 12]: 100; Plant response rating (scale 0 to 100), Barnyardgrass [5, 13]: 80; Plant response rating (scale 0 to 100), Ducksalad [6, 12]: 50; Plant response rating (scale 0 to 100), Ducksalad [6, 13]: 50; Plant response rating (scale 0 to 100), Rice (rice (Oryza saliva) [7]; [12]): 20; Plant response rating (scale 0 to 100), Rice (rice (Oryza saliva) [7]; [13]): 20
O=C1C(n2ccc(C3CC3)n2)SCN1c1cccc(C(F)(F)F)c1 (stereo not shown) [Compound 26] | 0 | 0 | 0 | 0 | 80 | 0 | 50 | 100 | 0 | 80 | 80 | 0 | 40 | 100 | 70 | 80 | 
CC(C)c1ccn(C2SCN(c3cccc(OC(F)(F)F)c3)C2=O)n1 (stereo not shown) [Compound 31] | 100 | 100 | 90 | 100 | 90 | 80 | 80 | 100 | 70 | 90 | 90 | 30 | 60 | 100 | 100 | 90 | 
CCC(C)c1ccn(C2SCN(c3cccc(OC(F)(F)F)c3)C2=O)n1 (stereo not shown) [Compound 32] | 100 | 100 | 100 | 100 | 100 | 20 | 100 | 100 | 50 | 80 | 100 | 0 | 30 | 100 | 80 | 100 | 
COc1cc(N2CCC(n3ccc(C(C)(C)C)n3)C2=O)ccc1C (stereo not shown) [Compound 42] | 100 | 100 | 100 | 100 | 100 | 100 | 100 | 100 | 100 | 100 | 70 | 20 | 40 | 100 | 100 | 80 | Plant response rating (scale 0 to 100), Barnyardgrass [5, 12]: 70; Plant response rating (scale 0 to 100), Barnyardgrass [5, 13]: 50; Plant response rating (scale 0 to 100), Ducksalad [6, 12]: 90; Plant response rating (scale 0 to 100), Ducksalad [6, 13]: 80; Plant response rating (scale 0 to 100), Rice (rice (Oryza saliva) [7]; [12]): 0; Plant response rating (scale 0 to 100), Rice (rice (Oryza saliva) [7]; [13]): 0
O=C1C(n2ccc(C3CCCCC3)n2)SCN1c1cccc(OC(F)(F)F)c1 (stereo not shown) [Compound 50] | 100 | 100 | 60 | 100 | 70 | 0 | 40 | 80 | 0 | 70 | 0 | 0 | 0 | 80 | 90 | 50 | 
O=C1C(n2ccc(C3CCCCC3)n2)OCN1c1cccc(C(F)(F)F)c1 (stereo not shown) [Compound 51] | 100 | 100 | 30 | 100 | 90 | 20 | 20 | 40 | 0 | 0 | 0 | 0 | 0 |  | 70 | 0 | 
O=C1C(n2ccc(C3CCCCC3)n2)SCN1c1cccc(C(F)(F)F)c1 (stereo not shown) [Compound 52] | 100 | 100 | 50 | 100 | 70 | 30 | 60 | 40 | 20 |  | 0 | 0 | 0 | 100 | 100 | 60 | 
CC(C)(C)c1ccn(C2CCN(c3ccc(Cl)c(Br)c3)C2=O)n1 (stereo not shown) [Compound 56] | 80 | 20 | 0 | 90 | 30 | 0 | 30 | 0 | 0 | 0 | 0 | 0 | 0 | 30 | 0 | 0 | 
